From PubChem BioAssay AID1963440 (Molecular Pharmacology Branch, DTP, NCI, 2024)

Test system: NCI-H1417 complex spheroids, growth % test/control
Assay: Anticancer human tumor NCI-H1417 cell line growth inhibition [Asc];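 note: spheroids exposed to compounds for 7 days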;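 for viability, T/C: 100% = DMSO vehicle control wells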
Conditions: for viability, T/C: stronger effect = lower value
In short: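 Concentration series start at each agent's clinical Cmax, or at 10 microM when none is established, and drop in half-log steps; agents are applied alone or together to complex spheroids built with HUVEC and hMSC.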

[1] = curve of first compound, second compound 0.01 µM
[2] = curve of first compound, second compound 0.0316 µM
[3] = curve of first compound, second compound 0.1 µM
[4] = curve of first compound, second compound 0.316 µM
[5] = curve of first compound, second compound 1 µM
[6] = second compound 0.01 µM, first compound 0.00949 µM
[7] = second compound 0.01 µM, first compound 0.03 µM
[8] = second compound 0.01 µM, first compound 0.0949 µM
[9] = second compound 0.01 µM, first compound 0.3 µM
[10] = second compound 0.01 µM, first compound 0.949 µM
[11] = second compound 0.01 µM, first compound 3 µM
[12] = second compound 0.0316 µM, first compound 0.00949 µM
[13] = second compound 0.0316 µM, first compound 0.03 µM
[14] = second compound 0.0316 µM, first compound 0.0949 µM
[15] = second compound 0.0316 µM, first compound 0.3 µM
[16] = second compound 0.0316 µM, first compound 0.949 µM
[17] = second compound 0.0316 µM, first compound 3 µM
[18] = second compound 0.1 µM, first compound 0.00949 µM
[19] = second compound 0.1 µM, first compound 0.03 µM
[20] = second compound 0.1 µM, first compound 0.0949 µM
[21] = second compound 0.1 µM, first compound 0.3 µM
[22] = second compound 0.1 µM, first compound 0.949 µM
[23] = second compound 0.1 µM, first compound 3 µM
[24] = second compound 0.316 µM, first compound 0.00949 µM
[25] = second compound 0.316 µM, first compound 0.03 µM
[26] = second compound 0.316 µM, first compound 0.0949 µM
[27] = second compound 0.316 µM, first compound 0.3 µM
[28] = second compound 0.316 µM, first compound 0.949 µM
[29] = second compound 0.316 µM, first compound 3 µM
[30] = second compound 1 µM, first compound 0.00949 µM
[31] = second compound 1 µM, first compound 0.03 µM
[32] = second compound 1 µM, first compound 0.0949 µM
[33] = second compound 1 µM, first compound 0.3 µM
[34] = second compound 1 µM, first compound 0.949 µM
[35] = second compound 1 µM, first compound 3 µM

Cc1c(S(C)(=O)=O)c(-c2cc(F)cc(N3CCN(c4ccc(NS(=O)(=O)c5ccc(NC(CCN6CCC(C(=O)OCCCP(=O)(O)O)CC6)CSc6ccccc6)c(S(=O)(=O)C(F)(F)F)c5)cc4)CC3)c2)c(-c2ccc(Cl)cc2)n1C(C)C (stereo not drawn)
viability, T/C (compound 0.1 µM): 81.6% [middle of 14 runs] | viability, T/C (compound 0.316 µM): 50.6% [middle of 14 runs] | viability, T/C (compound 1 µM): 13.7% [middle of 14 runs] | viability, T/C (compound 3.16 µM): 3.19% [middle of 14 runs] | viability, T/C (compound 10 µM): 2.54% [middle of 12 runs] | IC50 (compound alone, run of 10/11/2022): 322 nM [middle of 14 runs]

C=C(F)C(=O)N1CCN(c2nc(OCC3CCCN3C)nc3c2CCN(c2cccc4cccc(Cl)c24)C3)CC1CC#N (stereo not drawn) + CNC(C)C(=O)NC1CN(S(=O)(=O)c2cccc(S(=O)(=O)N3CCC4CCC(C(=O)NC(c5ccccc5)c5ccccc5)N4C(=O)C(NC(=O)C(C)NC)C3)c2)CCC2CCC(C(=O)NC(c3ccccc3)c3ccccc3)N2C1=O
IC50 [1]: 4.6 µM | IC50 [2]: 3.76 µM | IC50 [3]: 3.98 µM | IC50 [4]: 3.07 µM | IC50 [5]: 3.23 µM | viability, T/C (second compound 0.01 µM, first compound 0.0316 µM): 111% | viability, T/C (second compound 0.01 µM, first compound 0.1 µM): 101% | viability, T/C (second compound 0.01 µM, first compound 0.316 µM): 106% | viability, T/C (second compound 0.01 µM, first compound 1 µM): 92.2% | viability, T/C (second compound 0.01 µM, first compound 3.16 µM): 76.2% | viability, T/C (second compound 0.01 µM, first compound 10 µM): 0.22% | viability, T/C (second compound 0.0316 µM, first compound 0.0316 µM): 98.6% | viability, T/C (second compound 0.0316 µM, first compound 0.1 µM): 102% | viability, T/C (second compound 0.0316 µM, first compound 0.316 µM): 93.2% | viability, T/C (second compound 0.0316 µM, first compound 1 µM): 105% | viability, T/C (second compound 0.0316 µM, first compound 3.16 µM): 58.8% | viability, T/C (second compound 0.0316 µM, first compound 10 µM): 0.2% | viability, T/C (second compound 0.1 µM, first compound 0.0316 µM): 90.6% | viability, T/C (second compound 0.1 µM, first compound 0.1 µM): 99.5% | viability, T/C (second compound 0.1 µM, first compound 0.316 µM): 89.8% | viability, T/C (second compound 0.1 µM, first compound 1 µM): 90% | viability, T/C (second compound 0.1 µM, first compound 3.16 µM): 62.3% | viability, T/C (second compound 0.1 µM, first compound 10 µM): 0.2% | viability, T/C (second compound 0.316 µM, first compound 0.0316 µM): 94.5% | viability, T/C (second compound 0.316 µM, first compound 0.1 µM): 90.8% | viability, T/C (second compound 0.316 µM, first compound 0.316 µM): 94.8% | viability, T/C (second compound 0.316 µM, first compound 1 µM): 97.1% | viability, T/C (second compound 0.316 µM, first compound 3.16 µM): 48.9% | viability, T/C (second compound 0.316 µM, first compound 10 µM): 0.21% | viability, T/C (second compound 1 µM, first compound 0.0316 µM): 95.2% | viability, T/C (second compound 1 µM, first compound 0.1 µM): 101% | viability, T/C (second compound 1 µM, first compound 0.316 µM): 106% | viability, T/C (second compound 1 µM, first compound 1 µM): 101% | viability, T/C (second compound 1 µM, first compound 3.16 µM): 50.9% | viability, T/C (second compound 1 µM, first compound 10 µM): 1.03%

CCN1C(C(=O)NC23CCC(C(=O)O)(CC2)CC3)C(c2cccc(Cl)c2F)C2(C(=O)Nc3cc(Cl)ccc32)C12CCCCC2 (stereo not drawn) + CNC(C)C(=O)NC1CN(S(=O)(=O)c2cccc(S(=O)(=O)N3CCC4CCC(C(=O)NC(c5ccccc5)c5ccccc5)N4C(=O)C(NC(=O)C(C)NC)C3)c2)CCC2CCC(C(=O)NC(c3ccccc3)c3ccccc3)N2C1=O
IC50 [1]: > 3 µM | IC50 [2]: > 3 µM | IC50 [3]: > 3 µM | IC50 [4]: > 3 µM | IC50 [5]: > 3 µM | viability, T/C [6]: 105% | viability, T/C [7]: 104% | viability, T/C [8]: 105% | viability, T/C [9]: 99.7% | viability, T/C [10]: 106% | viability, T/C [11]: 120% | viability, T/C [12]: 107% | viability, T/C [13]: 118% | viability, T/C [14]: 106% | viability, T/C [15]: 86% | viability, T/C [16]: 101% | viability, T/C [17]: 96.2% | viability, T/C [18]: 103% | viability, T/C [19]: 102% | viability, T/C [20]: 99.7% | viability, T/C [21]: 88.6% | viability, T/C [22]: 95.7% | viability, T/C [23]: 120% | viability, T/C [24]: 105% | viability, T/C [25]: 95.1% | viability, T/C [26]: 105% | viability, T/C [27]: 102% | viability, T/C [28]: 104% | viability, T/C [29]: 108% | viability, T/C [30]: 110% | viability, T/C [31]: 108% | viability, T/C [32]: 106% | viability, T/C [33]: 108% | viability, T/C [34]: 95.4% | viability, T/C [35]: 106%

Cc1nc(N2CCC3(CC2)COC(C)C3N)c(CO)nc1Sc1ccnc(N)c1Cl (stereo not drawn) + CNC(C)C(=O)NC1CN(S(=O)(=O)c2cccc(S(=O)(=O)N3CCC4CCC(C(=O)NC(c5ccccc5)c5ccccc5)N4C(=O)C(NC(=O)C(C)NC)C3)c2)CCC2CCC(C(=O)NC(c3ccccc3)c3ccccc3)N2C1=O
IC50 (curve of first compound, second compound 0.00316 µM): > 3 µM | IC50 [1]: > 3 µM | IC50 [2]: > 3 µM | IC50 [3]: > 3 µM | IC50 [4]: > 3 µM | IC50 [5]: > 3 µM | viability, T/C (second compound 0.00316 µM, first compound 0.00949 µM): 99.4% | viability, T/C (second compound 0.00316 µM, first compound 0.03 µM): 89% | viability, T/C (second compound 0.00316 µM, first compound 0.0949 µM): 85.8% | viability, T/C (second compound 0.00316 µM, first compound 0.3 µM): 81.9% | viability, T/C (second compound 0.00316 µM, first compound 0.949 µM): 93.4% | viability, T/C (second compound 0.00316 µM, first compound 3 µM): 92.6% | viability, T/C [6]: 91.9% | viability, T/C [7]: 100% | viability, T/C [8]: 89.3% | viability, T/C [9]: 87.8% | viability, T/C [10]: 96.9% | viability, T/C [11]: 84.1% | viability, T/C [12]: 93.9% | viability, T/C [13]: 92.2% | viability, T/C [14]: 101% | viability, T/C [15]: 83.6% | viability, T/C [16]: 98.2% | viability, T/C [17]: 79% | viability, T/C [18]: 87.5% | viability, T/C [19]: 86.6% | viability, T/C [20]: 91.7% | viability, T/C [21]: 86.2% | viability, T/C [22]: 86.9% | viability, T/C [23]: 86.2% | viability, T/C [24]: 82.8% | viability, T/C [25]: 90.2% | viability, T/C [26]: 88% | viability, T/C [27]: 88.8% | viability, T/C [28]: 84.1% | viability, T/C [29]: 94.2% | viability, T/C [30]: 78.1% | viability, T/C [31]: 98.6% | viability, T/C [32]: 90.2% | viability, T/C [33]: 89.8% | viability, T/C [34]: 83.7% | viability, T/C [35]: 87.7%
